According to the NIST ThermoML archive (doi:10.1016/j.jct.2014.04.026):
“And” between values parts separate entries of the source, which are not always exact repeats. Equal values may be shown once. ± gives the expanded uncertainty stated by the source.

Legend:
[1] = for vapor or sublimation pressure: Closed cell (Static) method; for Normal melting temperature: DTA
[2] = Molar enthalpy of transition or fusion; details: Crystal; DSC

Cn1cccn1 [1-methyl-1H-pyrazole]
vapor or sublimation pressure ([1]; 253.9 K, Liquid): 0.0681 ± 0.0014 kPa
vapor or sublimation pressure ([1]; 255.85 K, Liquid): 0.08089 ± 0.0016 kPa
vapor or sublimation pressure ([1]; 257.81 K, Liquid): 0.0948 ± 0.0018 kPa
vapor or sublimation pressure ([1]; 260.03 K, Liquid): 0.1138 ± 0.0021 kPa
vapor or sublimation pressure ([1]; 261.7 K, Liquid): 0.1308 ± 0.002 kPa
vapor or sublimation pressure ([1]; 263.65 K, Liquid): 0.1508 ± 0.0022 kPa
vapor or sublimation pressure ([1]; 265.63 K, Liquid): 0.1755 ± 0.0024 kPa
vapor or sublimation pressure ([1]; 267.62 K, Liquid): 0.2033 ± 0.0026 kPa
vapor or sublimation pressure ([1]; 269.55 K, Liquid): 0.2358 ± 0.0029 kPa
vapor or sublimation pressure ([1]; 271.5 K, Liquid): 0.2714 ± 0.0032 kPa
vapor or sublimation pressure ([1]; 273.47 K, Liquid): 0.3111 ± 0.0035 kPa
vapor or sublimation pressure ([1]; 275.47 K, Liquid): 0.3597 ± 0.0039 kPa
vapor or sublimation pressure ([1]; 277.42 K, Liquid): 0.4115 ± 0.0044 kPa
vapor or sublimation pressure ([1]; 279.4 K, Liquid): 0.4704 ± 0.0049 kPa
vapor or sublimation pressure ([1]; 281.39 K, Liquid): 0.539 ± 0.0055 kPa
vapor or sublimation pressure ([1]; 283.35 K, Liquid): 0.6108 ± 0.0061 kPa
vapor or sublimation pressure ([1]; 285.3 K, Liquid): 0.6958 ± 0.0069 kPa
vapor or sublimation pressure ([1]; 287.32 K, Liquid): 0.7878 ± 0.0077 kPa
vapor or sublimation pressure ([1]; 289.32 K, Liquid): 0.893 ± 0.0086 kPa
vapor or sublimation pressure ([1]; 291.27 K, Liquid): 1.01 ± 0.01 kPa
vapor or sublimation pressure ([1]; 293.27 K, Liquid): 1.147 ± 0.011 kPa
Normal melting temperature ([1]; Crystal): -43.9 ± 0.4 °C
Molar enthalpy of transition or fusion [2]: 2.72 ± 0.0956 kcal/mol

Cn1cnc2ccccc21 [1-methylbenzimidazole]
vapor or sublimation pressure ([1]; 301.22 K, Crystal): 0.00026 ± 0.00011 kPa
vapor or sublimation pressure ([1]; 303.14 K, Crystal): 0.00033 ± 0.00011 kPa
vapor or sublimation pressure ([1]; 303.16 K, Liquid): 0.00051 ± 0.00011 kPa
vapor or sublimation pressure ([1]; 305.14 K, Crystal): 0.00042 ± 0.00011 kPa
vapor or sublimation pressure ([1]; 305.18 K, Crystal): 0.00041 ± 0.00011 kPa
vapor or sublimation pressure ([1]; 305.2 K, Liquid): 0.00062 ± 0.00011 kPa
vapor or sublimation pressure ([1]; 307.12 K, Liquid): 0.00074 ± 0.00011 kPa
vapor or sublimation pressure ([1]; 307.14 K, Crystal): 0.00051 ± 0.00011 kPa
vapor or sublimation pressure ([1]; 309.1 K, Liquid): 0.00089 ± 0.00011 kPa
vapor or sublimation pressure ([1]; 309.11 K, Crystal): 0.00063 ± 0.00011 kPa
vapor or sublimation pressure ([1]; 311.07 K, Crystal): 0.00078 ± 0.00011 kPa
vapor or sublimation pressure ([1]; 311.09 K, Liquid): 0.00107 ± 0.00012 kPa
vapor or sublimation pressure ([1]; 313.09 K, Crystal): 0.00097 ± 0.00012 kPa
vapor or sublimation pressure ([1]; 313.12 K, Liquid): 0.00128 ± 0.00012 kPa
vapor or sublimation pressure ([1]; 315.09 K, Liquid): 0.00153 ± 0.00012 kPa
vapor or sublimation pressure ([1]; 315.1 K, Crystal): 0.00119 ± 0.00012 kPa
vapor or sublimation pressure ([1]; 317.04 K, Liquid): 0.00182 ± 0.00013 kPa
vapor or sublimation pressure ([1]; 317.06 K, Crystal): 0.00146 ± 0.00012 kPa
vapor or sublimation pressure ([1]; 319.03 K, Crystal): 0.00178 ± 0.00013 kPa
vapor or sublimation pressure ([1]; 319.07 K, Liquid): 0.00217 ± 0.00014 kPa
vapor or sublimation pressure ([1]; 321.01 K, Liquid): 0.00255 ± 0.00015 kPa
vapor or sublimation pressure ([1]; 321.02 K, Crystal): 0.00217 ± 0.00014 kPa
vapor or sublimation pressure ([1]; 322.97 K, Crystal): 0.00264 ± 0.00015 kPa
vapor or sublimation pressure ([1]; 322.99 K, Liquid): 0.00304 ± 0.00016 kPa
vapor or sublimation pressure ([1]; 325.01 K, Crystal): 0.00324 ± 0.00017 kPa
vapor or sublimation pressure ([1]; 327 K, Crystal): 0.00392 ± 0.00019 kPa
vapor or sublimation pressure ([1]; 328.91 K, Crystal): 0.00473 ± 0.00022 kPa
vapor or sublimation pressure ([1]; 332.95 K, Liquid): 0.00656 ± 0.00028 kPa
vapor or sublimation pressure ([1]; 334.92 K, Liquid): 0.00759 ± 0.00032 kPa
vapor or sublimation pressure ([1]; 336.91 K, Liquid): 0.0089 ± 0.00037 kPa
vapor or sublimation pressure ([1]; 336.92 K, Liquid): 0.00896 ± 0.00037 kPa
vapor or sublimation pressure ([1]; 338.9 K, Liquid): 0.01031 ± 0.00042 kPa
vapor or sublimation pressure ([1]; 340.86 K, Liquid): 0.01187 ± 0.00048 kPa
vapor or sublimation pressure ([1]; 340.87 K, Liquid): 0.01203 ± 0.00048 kPa
vapor or sublimation pressure ([1]; 342.88 K, Liquid): 0.01375 ± 0.00053 kPa
vapor or sublimation pressure ([1]; 344.83 K, Liquid): 0.01603 ± 0.00056 kPa and 0.01591 ± 0.00056 kPa
vapor or sublimation pressure ([1]; 346.81 K, Liquid): 0.01835 ± 0.0006 kPa
vapor or sublimation pressure ([1]; 348.79 K, Liquid): 0.02107 ± 0.00064 kPa
vapor or sublimation pressure ([1]; 350.76 K, Liquid): 0.02401 ± 0.00068 kPa
vapor or sublimation pressure ([1]; 352.73 K, Liquid): 0.02767 ± 0.00074 kPa and 0.02759 ± 0.00074 kPa
vapor or sublimation pressure ([1]; 354.7 K, Liquid): 0.03132 ± 0.0008 kPa
vapor or sublimation pressure ([1]; 356.69 K, Liquid): 0.03607 ± 0.00087 kPa
vapor or sublimation pressure ([1]; 358.67 K, Liquid): 0.04098 ± 0.00095 kPa
vapor or sublimation pressure ([1]; 360.63 K, Liquid): 0.04632 ± 0.001 kPa
vapor or sublimation pressure ([1]; 362.6 K, Liquid): 0.05225 ± 0.0011 kPa
vapor or sublimation pressure ([1]; 364.59 K, Liquid): 0.05898 ± 0.0012 kPa
vapor or sublimation pressure ([1]; 366.55 K, Liquid): 0.06653 ± 0.0013 kPa
vapor or sublimation pressure ([1]; 368.53 K, Liquid): 0.07509 ± 0.0015 kPa
vapor or sublimation pressure ([1]; 370.5 K, Liquid): 0.08443 ± 0.0016 kPa
vapor or sublimation pressure ([1]; 372.49 K, Liquid): 0.09469 ± 0.0018 kPa
Normal melting temperature ([1]; Crystal): 56.1 ± 0.4 °C
Molar enthalpy of transition or fusion [2]: 3.32 ± 0.0956 kcal/mol

Cn1ccc2ccccc21 [1-methylindole]
vapor or sublimation pressure ([1]; 267.62 K, Crystal): 0.00033 ± 0.0001 kPa
vapor or sublimation pressure ([1]; 268.58 K, Liquid): 0.00043 ± 0.0001 kPa
vapor or sublimation pressure ([1]; 268.6 K, Crystal): 0.00037 ± 0.0001 kPa
vapor or sublimation pressure ([1]; 269.57 K, Crystal): 0.00042 ± 0.0001 kPa
vapor or sublimation pressure ([1]; 270.55 K, Crystal): 0.00048 ± 0.0001 kPa
vapor or sublimation pressure ([1]; 270.56 K, Liquid): 0.00054 ± 0.0001 kPa
vapor or sublimation pressure ([1]; 271.57 K, Crystal): 0.00054 ± 0.0001 kPa
vapor or sublimation pressure ([1]; 272.5 K, Liquid): 0.00066 ± 0.0001 kPa
vapor or sublimation pressure ([1]; 272.52 K, Crystal): 0.0006 ± 0.0001 kPa
vapor or sublimation pressure ([1]; 273.51 K, Crystal): 0.00068 ± 0.0001 kPa
vapor or sublimation pressure ([1]; 274.48 K, Liquid): 0.00081 ± 0.0001 kPa
vapor or sublimation pressure ([1]; 274.5 K, Crystal): 0.00077 ± 0.0001 kPa
vapor or sublimation pressure ([1]; 275.47 K, Crystal): 0.00086 ± 0.0001 kPa
vapor or sublimation pressure ([1]; 276.45 K, Liquid): 0.00097 ± 0.0001 kPa
vapor or sublimation pressure ([1]; 278.42 K, Liquid): 0.0012 ± 0.00011 kPa
vapor or sublimation pressure ([1]; 280.39 K, Liquid): 0.00145 ± 0.00011 kPa
vapor or sublimation pressure ([1]; 282.35 K, Liquid): 0.00176 ± 0.00012 kPa
vapor or sublimation pressure ([1]; 284.36 K, Liquid): 0.00211 ± 0.00013 kPa
vapor or sublimation pressure ([1]; 286.31 K, Liquid): 0.00252 ± 0.00014 kPa
vapor or sublimation pressure ([1]; 288.32 K, Liquid): 0.00302 ± 0.00015 kPa
vapor or sublimation pressure ([1]; 290.27 K, Liquid): 0.00358 ± 0.00017 kPa
vapor or sublimation pressure ([1]; 290.29 K, Liquid): 0.00359 ± 0.00017 kPa
vapor or sublimation pressure ([1]; 292.29 K, Liquid): 0.00431 ± 0.0002 kPa
vapor or sublimation pressure ([1]; 294.24 K, Liquid): 0.00507 ± 0.00022 kPa
vapor or sublimation pressure ([1]; 296.28 K, Liquid): 0.00607 ± 0.00026 kPa
vapor or sublimation pressure ([1]; 298.2 K, Liquid): 0.0071 ± 0.0003 kPa
vapor or sublimation pressure ([1]; 300.25 K, Liquid): 0.00844 ± 0.00035 kPa
vapor or sublimation pressure ([1]; 302.2 K, Liquid): 0.00987 ± 0.0004 kPa
vapor or sublimation pressure ([1]; 304.21 K, Liquid): 0.01167 ± 0.00047 kPa
vapor or sublimation pressure ([1]; 306.16 K, Liquid): 0.01359 ± 0.00052 kPa
vapor or sublimation pressure ([1]; 308.14 K, Liquid): 0.0158 ± 0.00056 kPa
vapor or sublimation pressure ([1]; 310.17 K, Liquid): 0.01854 ± 0.0006 kPa
vapor or sublimation pressure ([1]; 312.14 K, Liquid): 0.02149 ± 0.00064 kPa
vapor or sublimation pressure ([1]; 314.11 K, Liquid): 0.02521 ± 0.0007 kPa
vapor or sublimation pressure ([1]; 316.14 K, Liquid): 0.029 ± 0.00076 kPa
vapor or sublimation pressure ([1]; 318.06 K, Liquid): 0.03354 ± 0.00083 kPa
vapor or sublimation pressure ([1]; 320.05 K, Liquid): 0.03839 ± 0.00091 kPa
vapor or sublimation pressure ([1]; 322.02 K, Liquid): 0.0445 ± 0.001 kPa
vapor or sublimation pressure ([1]; 324.04 K, Liquid): 0.05044 ± 0.0011 kPa
vapor or sublimation pressure ([1]; 326.02 K, Liquid): 0.05848 ± 0.0012 kPa
vapor or sublimation pressure ([1]; 327.98 K, Liquid): 0.06647 ± 0.0013 kPa
vapor or sublimation pressure ([1]; 329.95 K, Liquid): 0.07637 ± 0.0015 kPa
vapor or sublimation pressure ([1]; 331.91 K, Liquid): 0.08658 ± 0.0016 kPa
vapor or sublimation pressure ([1]; 333.89 K, Liquid): 0.09881 ± 0.0018 kPa
vapor or sublimation pressure ([1]; 335.91 K, Liquid): 0.1114 ± 0.002 kPa
vapor or sublimation pressure ([1]; 337.89 K, Liquid): 0.1263 ± 0.0023 kPa
vapor or sublimation pressure ([1]; 339.81 K, Liquid): 0.1424 ± 0.0021 kPa
vapor or sublimation pressure ([1]; 341.9 K, Liquid): 0.1624 ± 0.0023 kPa
Normal melting temperature ([1]; Crystal): 3.4 ± 0.4 °C
Molar enthalpy of transition or fusion [2]: 2.61 ± 0.0956 kcal/mol
